Structures can show the parent of a compound that is named as a salt.

The subject of one test is Plasmodium falciparum 3D7 strain. Description: P. falciparum 3D7 asexual blood stage assay (SYBR green readout). It counts as cell-based. As to conditions: P. falciparum 3D7 in human erythrocytes, 72 h incubation, SYBR green fluorescence; read-out: IC50. How it is done:
Asexual Blood Stage Assay
The assay used to measure the effect of test compounds on a bloodstream stage of Plasmodium falciparum: 3D7 strain employs SYBR green as the readout. This is a dye that binds to double stranded deoxyribonucleic acid (DNA) with a resulting increase in fluorescence, allowing detection of P. falciparum DNA in infected erythrocytes, and thereby providing a measure of parasite growth and propagation.
P. falciparum Culture Maintenance
Erythrocytes (A+ blood) were prepared for both parasite culture and assay by washing 4 times with incomplete media (15.9 g RPMI 1640 (25 mM HEPES, L-glutamine), 1 g NaHCO3, 2 g glucose, 400 μL gentacin (500 mg/mL), 2 mL hypoxanthine solution (13.6 g/L in 0.1M NaOH pH 7.3) in 1 litre of media). The cells were centrifuged at 1800 g for 5 minutes, before decanting the supernatant and re-suspending in fresh incomplete media. On the final wash, the cells were re-suspended in complete media (incomplete media with 5 g/L AlbumaxII), and centrifuged at 1800 g for 3 minutes. This cell sediment was treated as 100% haematocrit.
P. falciparum 3D7 was cultured in erythrocytes at 5% haematocrit in complete media at 37° C. (1% O2, 3% CO2, balance N2). Cultures were split on a weekly basis to achieve a 1% parasitaemia in erythrocites at 5% haematocrit in fresh media. Culture media is replaced by fresh media every other day (2 times during the week).
On day 1, test compounds were added to assay plates using Echo dispensing technology ([…] and 20 points titration). 50 nL of each compound dilution was added to 50 μL of culture (5% haematocrit, 0.5% parasitaemia) and incubated for 72 h at 37° C. (1% O2, 3% CO2, balance N2). Final concentrations of test compounds ranged from 50,000 nM to 15 nM, in […].
On day 4, 10 μL SYBR green (Invitrogen S7563 supplied as 10,000× concentrate in DMSO) pre-diluted to 3× concentrate with Lysis buffer (20 mM Tris pH 7.9, 5% EDTA, 0.16% w/v, 1.6% TX100 v/v) was added to the cultures and incubated in the dark, overnight, at room temperature.
On day 5, fluorescent signal was measured using a BioTek plate reader (excitation 485 nm, emission 528 nm). All data were processed using IDBS ActivityBase. Raw data were converted into percent inhibition through linear regression by setting the high inhibition control (mefloquine) as 100% and the no inhibition control (DMSO) as 0%. Quality control criteria for passing plates were as follows: Z′>0.5, S:B>3, 30% CV(no inhibition control)<15. The formula used to calculate Z′ is: […]
All EC50 curve fitting was undertaken using the following bi-phasic two site dose response using XLfit model 300 (IDBS):
where A=100 minus the top of the upper curve 1 and the bottom of lower curve; B=Hill slope; log(C)=IC50 concentration at lower site; log(D)=IC50 concentration at upper site; x=inhibitor concentration; and y=% inhibition.
Consider `COc1ncccc1C(=O)Nc1cccc([C@]2(C)CC(=O)N([C@@H]3CCO[C@H](C)C3)C(=N)N2)c1Cl` (relative stereo) [Example 30, N-(2-Chloro-3-{(4S)-2-imino-4-methyl-1-[(2R*,4R*)-2-methyl-etrahydropyran-4-yl]-6-oxo-hexahydropyrimidin-4-yl]phenyl)-2-methoxypyridine-3-carboxamide trifluoroacetic acid salt], for which the IC50 came to 0.015 µM.

The same test, now with this note: Plasmodium falciparum, 3D7, Erythrocyte, 72 h.
Molecule `Cc1cc(Cl)cc(C(=O)Nc2cccc([C@]3(C)CC(=O)N([C@@H]4CCO[C@H](C)C4)C(=N)N3)c2Cl)c1` (relative stereo) [Example 22, 3-Chloro-N-(2-chloro-3-{(4S)-2-imino-4-methyl-1-[(2R*,4R*)-2-methyltetrahydropyran-4-yl]-6-oxo-hexahydropyrimidin-4-yl}phenyl)-5-methylbenzamide hydrochloride] yielded an IC50 of 0.009 µM. On the same count and under the same terms, the figure for `C[C@@H]1C[C@H](N2C(=N)N[C@](C)(c3cccc(NC(=O)c4cccc(C#N)c4)c3Cl)CC2=O)C[C@H](C)O1` (relative stereo) [Example 24, N-(2-Chloro-3-{(4S)-1-[(2S*,6R*)-2,6-dimethyltetrahydropyran-4-yl]-2-imino-4-methyl-6-oxohexahydro-pyrimidin-4-yl]phenyl)-3-cyano-benzamide hydrochloride] is 0.028 µM. Same read-out and setting: as for `C[C@@H]1C[C@H](N2C(=N)N[C@](C)(c3cccc(NC(=O)c4cccc(C#N)c4)c3Cl)CC2=O)CCC1(F)F` (relative stereo) [Example 25, N-(2-Chloro-3-{(4S)-1-[(1R*,3R*)-4,4-difluoro-3-methylcyclohexyl]-2-imino-4-methyl-6-oxohexahydro-pyrimidin-4-yl]phenyl)-3-cyano-benzamide trifluoroacetic acid salt], the figure is 0.087 µM; as for `C[C@H]1C[C@@H](N2C(=N)N[C@](C)(c3cccc(NC(=O)c4cccc(C#N)c4)c3Cl)CC2=O)CCC1(F)F` (relative stereo) [Example 26, N-(2-Chloro-3-{(4S)-1-[(1S*,3S*)-4,4-difluoro-3-methylcyclohexyl]-2-imino-4-methyl-6-oxohexahydro-pyrimidin-4-yl]phenyl)-3-cyano-benzamide trifluoroacetic acid salt], 0.015 µM. Still for that read-out and setting: as for `C[C@@H]1C[C@H](N2C(=N)N[C@](C)(c3cccc(NC(=O)c4cn(C)c5ccccc45)c3Cl)CC2=O)CCO1` (relative stereo) [Example 27, N-(2-Chloro-3-{(4S)-2-imino-4-methyl-1-[(2R*,4R*)-2-methyl-tetrahydropyran-4-yl]-6-oxo-hexahydropyrimidin-4-yl}phenyl)-1-methylindole-3-carboxamide trifluoroacetic acid salt], the figure is 0.029 µM; as for `Cc1cc(C(=O)Nc2cccc([C@]3(C)CC(=O)N([C@@H]4CCO[C@H](C)C4)C(=N)N3)c2Cl)c2nccn2c1` (relative stereo) [Example 28, N-(2-Chloro-3-{(4S)-2-imino-4-methyl-1-[(2R*,4R*)-2-methyl-tetrahydropyran-4-yl]-6-oxo-hexahydropyrimidin-4-yl}phenyl)-6-methylimidazo[1,2-a]pyridine-8-carboxamide trifluoroacetic acid salt], 0.024 µM. As for `C[C@@H]1CC(N2C(=N)N[C@](C)(c3cccc(NC(=O)c4cccn5nnnc45)c3Cl)CC2=O)CCO1` (relative stereo) [Example 29, N-(2-Chloro-3-{(4S)-2-imino-4-methyl-1-[(2R*,4R*)-2-methyl-tetrahydropyran-4-yl]-6-oxo-hexahydropyrimidin-4-yl}phenyl)-tetrazolo[1,5-a] pyridine-8-carboxamide trifluoroacetic acid salt], the IC50 was 0.023 µM.

The molecule `C[C@@H]1C[C@H](N2C(=N)N[C@](C)(c3cccc(NC(=O)c4cnc5ccccc5n4)c3Cl)CC2=O)CCO1` (relative stereo) [Example 31, N-(2-Chloro-3-{(4S)-2-imino-4-methyl-1-[(2R*,4R*)-2-methyl-tetrahydropyran-4-yl]-6-oxo-hexahydropyrimidin-4-yl}phenyl)-quinoxaline-2-carboxamide trifluoroacetic acid salt] had an IC50 of 0.013 µM. The same measure, in the same setting: the figure for `C[C@@H]1C[C@H](N2C(=N)N[C@](C)(c3cccc(NC(=O)c4cc(C(F)(F)F)nn4C)c3Cl)CC2=O)CCO1` (relative stereo) [Example 32, N-(2-Chloro-3-{(4S)-2-imino-4-methyl-1-[(2R*,4R*)-2-methyl-tetrahydropyran-4-yl]-6-oxo-hexahydropyrimidin-4-yl}phenyl)-2-methyl-5-(trifluoromethyl)-pyrazole-3-carboxamide trifluoroacetic acid salt] is 0.055 µM; for `C[C@@H]1C[C@H](N2C(=N)N[C@](C)(c3cccc(NC(=O)c4cnc5ccccc5c4)c3Cl)CC2=O)CCO1` (relative stereo) [Example 33, N-(2-Chloro-3-{(4S)-2-imino-4-methyl-1-[(2R*,4R*)-2-methyl-tetrahydropyran-4-yl]-6-oxo-hexahydropyrimidin-4-yl}phenyl)-quinoline-3-carboxamide trifluoroacetic acid salt] it is 0.054 µM; for `Cc1cnc(C(=O)Nc2cccc([C@]3(C)CC(=O)N([C@@H]4CCO[C@H](C)C4)C(=N)N3)c2Cl)cn1` (relative stereo) [Example 34, N-(2-Chloro-3-{(4S)-2-imino-4-methyl-1-[(2R*,4R*)-2-methyl-tetrahydropyran-4-yl]-6-oxo-hexahydropyrimidin-4-yl]phenyl)-5-methylpyrazine-2-carboxamide trifluoroacetic acid salt] it is 0.06 µM. Consider `C[C@@H]1C[C@H](N2C(=N)N[C@](C)(c3cccc(NC(=O)c4ccccc4F)c3Cl)CC2=O)CCO1` (relative stereo) [Example 35, N-(2-Chloro-3-{(4S)-2-imino-4-methyl-1-[(2R*,4R*)-2-methyl-tetrahydropyran-4-yl]-6-oxo-hexahydropyrimidin-4-yl}phenyl)-2-fluorobenzamide trifluoroacetic acid salt], for which half-maximal inhibition (IC50) required 0.011 µM. The same measure, in the same setting: the figure for `C[C@@H]1C[C@H](N2C(=N)N[C@](C)(c3cccc(NC(=O)c4ccc(F)c(F)c4)c3Cl)CC2=O)CCO1` (relative stereo) [Example 36, N-(2-Chloro-3-{(4S)-2-imino-4-methyl-1-[(2R*,4R*)-2-methyl-tetrahydropyran-4-yl]-6-oxo-hexahydropyrimidin-4-yl]phenyl)-3,4-difluorobenzamide trifluoroacetic acid salt] is 0.033 µM; for `C[C@@H]1C[C@H](N2C(=N)N[C@](C)(c3cccc(NC(=O)c4ccc(C(F)(F)F)cc4)c3Cl)CC2=O)CCO1` (relative stereo) [Example 37, N-(2-Chloro-3-{(4S)-2-imino-4-methyl-1-[(2R*,4R*)-2-methyl-tetrahydropyran-4-yl]-6-oxo-hexahydropyrimidin-4-yl}phenyl)-4-(trifluoromethyl)benzamide trifluoroacetic acid salt] it is 0.207 µM. The same measure, in the same setting: as for `C[C@@H]1C[C@H](N2C(=N)N[C@](C)(c3cccc(NC(=O)c4cncnc4)c3Cl)CC2=O)CCO1` (relative stereo) [Example 38, N-(2-Chloro-3-{(4S)-2-imino-4-methyl-1-[(2R*,4R*)-2-methyl-tetrahydropyran-4-yl]-6-oxo-hexahydropyrimidin-4-yl]phenyl)-pyrimidine-5-carboxamide trifluoroacetic acid salt], the figure is 0.11 µM; as for `C[C@@H]1C[C@H](N2C(=N)N[C@](C)(c3cccc(NC(=O)c4cncc(Cl)c4)c3Cl)CC2=O)CCO1` (relative stereo) [Example 39, 5-Chloro-N-(2-chloro-3-{(4S)-2-imino-4-methyl-1-[(2R*,4R*)-2-methyltetrahydropyran-4-yl]-6-oxo-hexahydropyrimidin-4-yl}phenyl)-pyridine-3-carboxamide trifluoroacetic acid salt], 0.019 µM.

As to `C[C@@H]1C[C@H](N2C(=N)N[C@](C)(c3cccc(NC(=O)c4cncc(F)c4)c3Cl)CC2=O)CCO1` (relative stereo) [Example 40, N-(2-Chloro-3-{(4S)-2-imino-4-methyl-1-[(2R*,4R*)-2-methyl-tetrahydropyran-4-yl]-6-oxo-hexahydropyrimidin-4-yl]phenyl)-5-fluoropyridine-3-carboxamide trifluoroacetic acid salt], half-maximal inhibition (IC50) required 0.034 µM.

(Values after US20220289685A1, “ANTIMALARIAL HEXAHYDROPYRIMIDINE ANALOGUES” (UCB BIOPHARMA SRL, priority 2019, published 2022).)
